Source: ChEMBL document CHEMBL1201862, “PubChem BioAssay data set” (2004)
Activity calls are given as the source filed them.

Key:
Cytochrome P450 1A2 = biological target: T1, Cytochrome P450 1A2 (Homo sapiens, UniProt P05177);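 also: PubChem cytochrome P450 panel assay, CYP1A2 panel member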
T1 sequence (P05177 whole entry): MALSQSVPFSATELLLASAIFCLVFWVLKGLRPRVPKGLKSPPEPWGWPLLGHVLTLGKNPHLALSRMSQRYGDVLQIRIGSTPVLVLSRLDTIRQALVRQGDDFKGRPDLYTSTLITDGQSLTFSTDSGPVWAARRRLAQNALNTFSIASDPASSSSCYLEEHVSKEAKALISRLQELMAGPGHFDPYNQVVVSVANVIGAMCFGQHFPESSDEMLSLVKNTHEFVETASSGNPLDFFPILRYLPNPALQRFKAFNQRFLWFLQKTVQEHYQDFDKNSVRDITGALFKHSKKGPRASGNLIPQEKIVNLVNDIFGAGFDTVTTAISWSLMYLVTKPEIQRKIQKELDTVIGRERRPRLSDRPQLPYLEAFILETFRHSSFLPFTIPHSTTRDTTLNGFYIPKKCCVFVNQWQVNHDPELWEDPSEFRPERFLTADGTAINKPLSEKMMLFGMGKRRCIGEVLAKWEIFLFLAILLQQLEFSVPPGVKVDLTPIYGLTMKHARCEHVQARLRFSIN

Cytochrome P450 2D6 = Cytochrome P450 2D6 (Homo sapiens, UniProt P10635);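 also: CYP2D6 member of a cytochrome P450 panel assay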
cells = type: functional
Cytochrome P450 2C19 = Cytochrome P450 2C19 (Homo sapiens, UniProt P33261); test: Cytochrome panel assay with activity outcomes. Panel member name: p450-cyp2c19 Compounds with AC50 equal or less than 10 uM are considered active; type: functional; details: read-out: AC50
[1] = HEp-2 cell cytotoxicity, dose response, cytotoxicity control for RSV inhibitor project, HTS (AID 2410); type: functional; details: human respiratory syncytial virus
H4 = test: Luminescence Cell-Based Dose Response HTS to Identify Activators of 5'UTR Stem-Loop Driven Prion Protein mRNA Translation in H4 Neuroglioblastoma Cells. [Related pubchem assays: 1829 (Project Summary), 1814 (Primary HTS)]; type: functional; details: Homo sapiens
[2] = Luminescence Cell-Based Dose Response HTS to Identify Activators of Luciferase Translation or Activity in H4 […] Cells. [Related pubchem assays: 1829 (Project Summary), 1814 (Primary HTS)]; type: functional
[3] = biological target: T2, Heat shock factor protein 1 (Mus musculus, UniProt P38532); test: inhibition of MG132-induced HSE-luciferase signal, confirmation, cell-based, NIH3T3, luminescence, dose retest (AID 2382); type: functional;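 also: NIH3T3 fibroblasts with HSF1-driven luciferase reporter stressed by proteasome inhibitor MG132; luminescence from HSF1-driven luciferase expression after 8 hours of MG132 stress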
T2 sequence (P38532 whole entry): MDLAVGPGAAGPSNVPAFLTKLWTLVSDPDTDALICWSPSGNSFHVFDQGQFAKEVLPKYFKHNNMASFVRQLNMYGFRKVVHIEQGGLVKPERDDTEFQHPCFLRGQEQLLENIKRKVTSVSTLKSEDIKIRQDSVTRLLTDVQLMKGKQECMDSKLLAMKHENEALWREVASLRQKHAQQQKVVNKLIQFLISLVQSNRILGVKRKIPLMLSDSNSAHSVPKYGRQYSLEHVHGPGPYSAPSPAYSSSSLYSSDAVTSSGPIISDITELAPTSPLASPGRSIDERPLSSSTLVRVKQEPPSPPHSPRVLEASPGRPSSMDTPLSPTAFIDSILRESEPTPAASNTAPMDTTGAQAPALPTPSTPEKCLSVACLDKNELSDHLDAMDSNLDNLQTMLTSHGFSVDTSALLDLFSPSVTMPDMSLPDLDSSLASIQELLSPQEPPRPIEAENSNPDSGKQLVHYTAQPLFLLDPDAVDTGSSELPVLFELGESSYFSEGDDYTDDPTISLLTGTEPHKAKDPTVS

[4] = biological target: T3, Corticotropin-releasing factor receptor 2/Corticotropin-releasing factor-binding protein (Homo sapiens, UniProt P24387+Q13324); test: activators of CRF receptor 2 with binding protein – uHTS hits, confirmation (AID 602473); type: functional; details: read-out: EC50_Mean
T3 sequence (Q13324 whole entry): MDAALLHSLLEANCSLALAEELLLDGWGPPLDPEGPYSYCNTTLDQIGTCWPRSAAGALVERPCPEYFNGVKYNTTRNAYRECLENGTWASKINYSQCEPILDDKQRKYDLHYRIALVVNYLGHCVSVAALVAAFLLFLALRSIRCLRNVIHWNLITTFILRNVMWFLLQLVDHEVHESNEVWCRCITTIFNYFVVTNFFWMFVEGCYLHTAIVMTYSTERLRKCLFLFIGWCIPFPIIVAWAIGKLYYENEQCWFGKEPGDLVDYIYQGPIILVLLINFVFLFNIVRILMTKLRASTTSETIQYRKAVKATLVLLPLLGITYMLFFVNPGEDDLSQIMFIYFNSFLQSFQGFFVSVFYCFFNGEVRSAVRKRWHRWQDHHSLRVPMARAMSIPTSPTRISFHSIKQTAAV
T3 sequence (P24387 whole entry): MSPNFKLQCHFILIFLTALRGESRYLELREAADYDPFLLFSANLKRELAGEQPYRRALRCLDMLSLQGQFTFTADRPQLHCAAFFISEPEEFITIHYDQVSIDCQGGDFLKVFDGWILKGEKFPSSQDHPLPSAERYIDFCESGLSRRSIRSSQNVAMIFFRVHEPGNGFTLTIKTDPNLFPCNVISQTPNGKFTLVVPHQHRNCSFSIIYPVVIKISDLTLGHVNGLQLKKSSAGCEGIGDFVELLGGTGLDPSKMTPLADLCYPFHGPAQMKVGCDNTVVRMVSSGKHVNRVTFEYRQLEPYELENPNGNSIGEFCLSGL

Cytochrome P450 2C9 = Cytochrome P450 2C9 (Homo sapiens, UniProt P11712)
Sequence of Cytochrome P450 2C9 (P11712 whole entry): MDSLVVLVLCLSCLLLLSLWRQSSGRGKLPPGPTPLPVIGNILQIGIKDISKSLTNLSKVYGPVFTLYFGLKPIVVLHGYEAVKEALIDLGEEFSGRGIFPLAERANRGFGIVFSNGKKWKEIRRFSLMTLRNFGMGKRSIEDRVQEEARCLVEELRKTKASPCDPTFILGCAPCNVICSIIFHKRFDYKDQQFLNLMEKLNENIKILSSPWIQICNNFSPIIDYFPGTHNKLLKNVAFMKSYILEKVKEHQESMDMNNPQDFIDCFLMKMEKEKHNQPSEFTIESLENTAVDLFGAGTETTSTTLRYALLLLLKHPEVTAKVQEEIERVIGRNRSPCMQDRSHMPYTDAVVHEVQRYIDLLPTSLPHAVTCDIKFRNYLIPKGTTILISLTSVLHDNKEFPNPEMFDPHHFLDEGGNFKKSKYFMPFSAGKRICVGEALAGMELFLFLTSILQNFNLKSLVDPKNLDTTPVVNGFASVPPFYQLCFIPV

Sequence of Cytochrome P450 2C19 (P33261 whole entry): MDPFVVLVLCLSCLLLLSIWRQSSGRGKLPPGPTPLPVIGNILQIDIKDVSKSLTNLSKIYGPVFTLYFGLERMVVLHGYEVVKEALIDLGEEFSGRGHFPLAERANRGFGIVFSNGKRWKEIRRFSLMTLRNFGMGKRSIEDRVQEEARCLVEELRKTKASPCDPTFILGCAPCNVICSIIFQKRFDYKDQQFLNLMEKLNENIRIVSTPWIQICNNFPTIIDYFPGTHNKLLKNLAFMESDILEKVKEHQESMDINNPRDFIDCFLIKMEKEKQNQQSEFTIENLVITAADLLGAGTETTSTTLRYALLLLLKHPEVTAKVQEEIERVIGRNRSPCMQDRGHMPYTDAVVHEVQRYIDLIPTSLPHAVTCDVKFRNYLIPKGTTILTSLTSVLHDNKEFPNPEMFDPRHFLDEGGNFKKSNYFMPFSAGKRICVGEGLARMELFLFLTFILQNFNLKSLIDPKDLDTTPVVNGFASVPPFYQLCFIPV
Sequence of Cytochrome P450 2D6 (P10635 whole entry): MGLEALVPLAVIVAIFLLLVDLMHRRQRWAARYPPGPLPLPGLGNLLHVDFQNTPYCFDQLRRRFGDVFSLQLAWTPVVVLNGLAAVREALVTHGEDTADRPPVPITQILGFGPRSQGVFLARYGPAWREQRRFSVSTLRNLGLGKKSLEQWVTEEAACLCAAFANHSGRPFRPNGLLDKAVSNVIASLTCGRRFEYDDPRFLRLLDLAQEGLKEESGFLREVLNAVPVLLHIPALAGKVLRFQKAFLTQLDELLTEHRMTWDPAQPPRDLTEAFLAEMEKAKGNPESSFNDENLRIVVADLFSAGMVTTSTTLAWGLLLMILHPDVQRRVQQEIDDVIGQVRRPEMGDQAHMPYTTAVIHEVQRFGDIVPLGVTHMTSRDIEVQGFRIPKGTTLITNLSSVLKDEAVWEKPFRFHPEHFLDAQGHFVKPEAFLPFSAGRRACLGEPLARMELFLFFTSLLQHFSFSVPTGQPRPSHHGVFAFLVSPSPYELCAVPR

## O=c1c(-c2cc(F)cc(F)c2)nc2cnc(N3CCOCC3)nc2n1C[C@H]1CCCO1
Cytochrome P450 1A2
  AC50: 2.51 µM (inconclusive)

## CC(C)NCC[C@@H](O)c1cc2ccccc2o1
Cytochrome P450 2D6
  AC50: 3.16 µM (inconclusive)

## NC(=O)COC(=O)c1sc2ccccc2c1Cl
cells
  IC50: 37.6 µM (active)

## CCCS(=O)(=O)N1CCCC(C(=O)NCc2cccnc2)C1 (stereo unspecified)
Cytochrome P450 1A2
  AC50: 0.00631 µM (inconclusive)
Cytochrome P450 2C19
  AC50: 15.8 µM (inconclusive)

## O=C(C1CCCN(c2ncnc3c2nc2n3CCCCC2)C1)N1CCN(c2cccc(Cl)c2)CC1 (stereo unspecified)
[1]
  CC50: 11.7 µM (active)

## CCOc1ccc2[nH]c3ccc4nonc4c3c2c1
[1]
  CC50: > 50 µM (active)

## COc1ccc(CCNC(=O)c2ccc3c(c2)OCCO3)cc1
H4
  EC50: 66.7 µM (active)

## N=C(NOC(=O)c1ccco1)c1ccccc1
[2]
  EC50: 47.4 µM (active)
H4
  EC50: > 120 µM (not active)

## COc1ccc(-c2[nH]ncc2CN2CCCCCCC2)c(OC)c1
cells
  IC50: 18.5 µM (active)

## COc1ccc(OCCN2C(=O)c3ccccc3C2=O)cc1
[3]
  EC50: > 195 µM (not active)

## Cc1cc(C)c(NC(=O)CSc2nncn2-c2cccnc2)c(C)c1
[3]
  EC50: > 195 µM (not active)

## CCNc1oc(-c2cccc3ccccc23)nc1C#N
[1]
  CC50: > 50 µM (active)

## CN1Cc2sc(NC(=S)NC(=O)c3ccccc3)c(C#N)c2CC1(C)C
[3]
  EC50: 13.9 µM (active)

## O=C(O)CCNS(=O)(=O)c1ccccc1C(F)(F)F
[3]
  EC50: > 195 µM (not active)

## COc1cccc(-c2ccc3ncnc(N4CCOCC4)c3c2)c1
Cytochrome P450 2D6
  AC50: 31.6 µM (inconclusive)

## CCC(=O)Nc1nnc(SCC(=O)c2ccc3c(c2)Cc2ccccc2-3)s1
[1]
  CC50: 42 µM (active)

## Cc1nc(NC(=O)CSc2cc(C)c3ccccc3n2)c(Cl)cc1Cl
[1]
  CC50: > 50 µM (active)

## O=C(NC(C(=O)N/N=C/c1ccccc1)c1nnc(O)c2ccccc12)c1ccccc1 (stereo unspecified)
[4]
  EC50: 5.14 µM (active)

## N#Cc1nc(-c2ccco2)oc1N1CCN(c2cccc(Cl)c2)CC1
[1]
  CC50: 31.8 µM (active)

## Cc1cccc(CNc2ncncc2-c2cccc(C#N)c2)c1
Cytochrome P450 2D6
  AC50: 31.6 µM (inconclusive)

## COc1ccc(-n2c(C)c(C)c3c(N)ncnc32)cc1
[3]
  EC50: 37.9 µM (active)

## CCc1ccc(C(=O)COC(=O)CNC(=O)c2cccs2)cc1
[3]
  EC50: > 195 µM (not active)

## CN(C)C(=O)c1ccc(-c2cc(NCc3ccccc3)ncn2)cc1
Cytochrome P450 1A2
  AC50: 12.6 µM (inconclusive)
Cytochrome P450 2D6
  AC50: 39.8 µM (inconclusive)

## CN(C)c1ccc(/C=C/C(=O)c2ccc(O)cc2)cc1
[4]
  EC50: 5.34 µM (active)

## CCCCC(=O)NC(Nc1cc(C)ccn1)(C(=O)OCC)C(F)(F)F (stereo unspecified)
Cytochrome P450 1A2
  AC50: 15.8 µM (inconclusive)

## COc1ccc(CCNc2cc(-c3ccccc3)nc3ncnn23)cc1
cells
  IC50: 2.48 µM (active)

## O=C(CN1CC(c2ccccc2)CC1=O)NCc1ccc(F)cc1 (stereo unspecified)
[3]
  EC50: > 195 µM (not active)

## CCC(=O)n1nc(-c2ccc(OC)cc2)nc1N
Cytochrome P450 2C9
  AC50: 0.0562 µM (inconclusive)

## CCOC(=O)c1nc(O)c2c3c(sc2n1)CC(C)CC3 (stereo unspecified)
cells
  IC50: 4.55 µM (active)

## COc1cccc(-c2nc(Nc3ccncc3)c3ccccc3n2)c1
Cytochrome P450 2D6
  AC50: 25.1 µM (inconclusive)

## Cc1cc(N2CCN(c3ccc(F)cc3)CC2)nc2cc(O)ccc12
[3]
  EC50: > 195 µM (not active)

## CCCc1cc2c(n1CCc1ccc(Cl)cc1)C(C)C1CN(C(=O)c3ccccc3)C(C)(C(=O)OC)C21 (stereo unspecified)
Cytochrome P450 1A2
  AC50: 25.1 µM (inconclusive)

## Brc1c(CSc2nncc3ccccc23)nc2ccccn12
cells
  IC50: 5.43 µM (active)

## N#Cc1ccc(OCC(=O)Nc2ccncc2)cc1
[1]
  CC50: 14.7 µM (active)

## Cc1ccc2nc(-c3cccc(Br)c3)cc(C(=O)NCC3CCCO3)c2c1 (stereo unspecified)
[3]
  EC50: > 195 µM (not active)

## COc1ccccc1C(=O)N/C(=C/c1ccc(Br)cc1)C(=O)NCC(=O)O
Cytochrome P450 1A2
  AC50: 12.6 µM (inconclusive)

## COc1ccc(CCNC(=O)c2ccccc2NC(=O)c2ccco2)cc1OC
Cytochrome P450 1A2
  AC50: 22.4 µM (inconclusive)

## OC(CNCCc1ccc(Cl)cc1)COc1cc(Cl)ccc1Cl (stereo unspecified)
[1]
  CC50: 15.6 µM (active)

## CN1CC(c2ccccn2)C2(SC(=S)N(Cc3ccccc3)C2=O)C12C(=O)Nc1ccccc12 (stereo unspecified)
Cytochrome P450 2D6
  AC50: 28.2 µM (inconclusive)

## COc1ccc(-c2c(C)c3ccc(O)cc3oc2=O)cc1
[1]
  CC50: 20.9 µM (active)

## Cc1ccc(OCC(=O)Nn2cnc3ccccc32)cc1
Cytochrome P450 2D6
  AC50: 10 µM (inconclusive)

## COC(=O)[C@@]1(Cc2ccc(F)cc2)[C@H]2c3cc(C(=O)N(C)C)n(CC4CC4)c3C[C@H]2CN1C(=O)c1ccccc1
Cytochrome P450 1A2
  AC50: 25.1 µM (inconclusive)

## CCN(CC)C[C@@H](O)CN1CCCCc2nc(C)c(C)cc21
Cytochrome P450 2D6
  AC50: 2.51 µM (inconclusive)

## CCn1c(-c2ccc(-c3ccccc3)cc2)cnc1S
[1]
  CC50: 18.9 µM (active)

## Cc1ccc(C(=O)NN2CCOCC2)cc1
Cytochrome P450 2D6
  AC50: 0.224 µM (inconclusive)

## CC(C)OC(=O)CSc1nc(-c2ccc(F)cc2)nc2ccc(F)cc12
Cytochrome P450 2C9
  AC50: 0.0178 µM (inconclusive)
Cytochrome P450 2C19
  AC50: 0.112 µM (inconclusive)

## O=C(N/N=C/c1ccc(Br)s1)c1ccncc1
cells
  IC50: < 0.1 µM (active)

## OC(COc1ccccc1Cl)CN1CCN(CC(O)COc2ccccc2Cl)CC1 (stereo unspecified)
cells
  IC50: 17.3 µM (active)

## CCCCOc1ccc(S(=O)(=O)NNC(=O)C2Cc3c(ccc4ccccc34)O2)cc1 (stereo unspecified)
[1]
  CC50: 27.1 µM (active)

## CCOC(=O)Cc1csc(NC(=O)Nc2cccs2)n1
[3]
  EC50: > 195 µM (not active)

## Cc1cccc(CS(=O)(=O)Cc2ccc(C(=O)NCc3cccs3)o2)c1
[3]
  EC50: > 195 µM (not active)

## COC(=O)[C@@]1(Cc2ccc(OC)cc2)[C@H]2c3cc(C(=O)N(C)C)n(Cc4ccc(C)c(F)c4F)c3C[C@H]2CN1C(=O)c1ccccc1
Cytochrome P450 2D6
  AC50: 12.6 µM (inconclusive)

## O=C(CN1C(=O)c2cccc3cccc(c23)C1=O)N1CCCCCC1
Cytochrome P450 2C9
  AC50: 22.4 µM (inconclusive)

## Cn1c(COc2nnc(-c3ccc(Cl)cc3)c3ccccc23)nc2ccccc21
Cytochrome P450 1A2
  AC50: 14.1 µM (inconclusive)
Cytochrome P450 2C19
  AC50: 14.1 µM (inconclusive)

## CS(=O)(=O)Nc1cccc(-c2cncnc2Nc2ccccc2)c1
Cytochrome P450 2D6
  AC50: 25.1 µM (inconclusive)

## O=C(Nc1ccc(F)cc1F)c1cc2ccccc2oc1=O
cells
  IC50: 39.7 µM (active)

## O=C(Cc1ccc(Cl)c(Cl)c1)OCCN1CCCC1
Cytochrome P450 2D6
  AC50: 31.6 µM (inconclusive)

## Cn1c2c(c3ccccc31)CC/C2=N\O
[1]
  CC50: 38.5 µM (active)

## CCN(CC)C(=O)CSc1nc2ccc(NC(=O)CSc3nnc(COc4ccccc4C)n3C)cc2s1
Cytochrome P450 2D6
  AC50: 14.1 µM (inconclusive)

## Cc1ccc(C)c(S(=O)(=O)N2CCC(c3nc(O)c4nnn(Cc5ccc(F)cc5)c4n3)CC2)c1
Cytochrome P450 2D6
  AC50: 14.1 µM (inconclusive)

## Cc1ccc(S(=O)(=O)N(C)CC(=O)NCCCc2ccccc2)cc1
[4]
  EC50: > 53 µM (inactive)
